The values below come from patent publication US8748415B2 (priority 2011, dated 2014).

The test system of the test is recombinant NL4-3 virus (Renilla luciferase in nef, Gag P373S). The test is described as follows: HIV cell culture assay (luciferase activity in MT-2 cells infected with NLRluc recombinant virus). In kind it is cell-based. To be noted: NL43, MT-2 cells infected 4-5 days with NLRluc recombinant virus. The procedure, abridged:
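Activity was read as luciferase output (Dual Luciferase reagents premixed with lysis solution) after 4–5 days of infection in serially diluted inhibitor. Host cells were MT-2 in 10% FBS RPMI. The reporter virus came from transfected 293T cells and was titered on MT-2.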

The EC50 is the concentration giving half of the maximal effect. For `C=C(C)[C@@H]1CC[C@]2(CNCCCN3CCN(C)CC3)CC[C@]3(C)[C@H](CC[C@@H]4[C@@]5(C)CC=C(c6ccc(C(=O)O)cc6)C(C)(C)[C@@H]5CC[C@]43C)[C@@H]12` [Example 56, 4-((1R,3aS,5aR,5bR,7aR,11aS,11bR,13aR,13bR)-5a,5b,8,8,11a-pentamethyl-3a-((3-(4-methylpiperazin-1-yl)propylamino)methyl)-1-(prop-1-en-2-yl)-2,3,3a,4,5,5a,5b,6,7,7a,8,11,11a,11b,12,13,13a,13b-octadecahydro-1H-cyclopenta[a]chrysen-9-yl)benzoic acid], where the note is “class symbol”, the concentration for a half-maximal effect (EC50) is less than 100 nM.

Take `C=C(C)[C@@H]1CC[C@]2(CNCC(=O)N3CCCCC3)CC[C@]3(C)[C@H](CC[C@@H]4[C@@]5(C)CC=C(c6ccc(C(=O)O)cc6)C(C)(C)[C@@H]5CC[C@]43C)[C@@H]12` [Example 130, 4-((1R,3aS,5aR,5bR,7aR,11aS,11bR,13aR,13bR)-5a,5b,8,8,11a-pentamethyl-3a-((2-oxo-2-(piperidin-1-yl)ethylamino)methyl)-1-(prop-1-en-2-yl)-2,3,3a,4,5,5a,5b,6,7,7a,8,11,11a,11b,12,13,13a,13b-octadecahydro-1H-cyclopenta[a]chrysen-9-yl)benzoic acid]: under “class symbol”, the EC50 was less than 100 nM.

Regarding `C=C(C)[C@@H]1CC[C@]2(CNCCCN3C(=O)CCCC3=O)CC[C@]3(C)[C@H](CC[C@@H]4[C@@]5(C)CC=C(c6ccc(C(=O)O)cc6)C(C)(C)[C@@H]5CC[C@]43C)[C@@H]12` [Example 80, 4-((1R,3aS,5aR,5bR,7aR,11aS,11bR,13aR,13bR)-3a-((3-(2,6-dioxopiperidin-1-yl)propylamino)methyl)-5a,5b,8,8,11a-pentamethyl-1-(prop-1-en-2-yl)-2,3,3a,4,5,5a,5b,6,7,7a,8,11,11a,11b,12,13,13a,13b-octadecahydro-1H-cyclopenta[a]chrysen-9-yl)benzoic acid], the half-maximal effective concentration (EC50) (class symbol) was less than 100 nM.

Take `C=C(C)[C@@H]1CC[C@]2(CNC(=O)C(F)(F)C(=O)O)CC[C@]3(C)[C@H](CC[C@@H]4[C@@]5(C)CC=C(c6ccc(C(=O)O)cc6)C(C)(C)[C@@H]5CC[C@]43C)[C@@H]12` [Example 153, 4-((1R,3aS,5aR,5bR,7aR,11aS,11bR,13aR,13bR)-3a-((2-carboxy-2,2-difluoroacetamido)methyl)-5a,5b,8,8,11a-pentamethyl-1-(prop-1-en-2-yl)-2,3,3a,4,5,5a,5b,6,7,7a,8,11,11a,11b,12,13,13a,13b-octadecahydro-1H-cyclopenta[a]chrysen-9-yl)benzoic acid]: the EC50 (class symbol) was greater than 100 nM.

Take `C=C(C)[C@@H]1CC[C@]2(CNC(=O)NCC(=O)OC)CC[C@]3(C)[C@H](CC[C@@H]4[C@@]5(C)CC=C(c6ccc(C(=O)O)cc6)C(C)(C)[C@@H]5CC[C@]43C)[C@@H]12` [Example 158, 4-((1R,3aS,5aR,5bR,7aR,11aS,11bR,13aR,13bR)-3a-((3-(2-methoxy-2-oxoethyl)ureido)methyl)-5a,5b,8,8,11a-pentamethyl-1-(prop-1-en-2-yl)-2,3,3a,4,5,5a,5b,6,7,7a,8,11,11a,11b,12,13,13a,13b-octadecahydro-1H-cyclopenta[a]chrysen-9-yl)benzoic acid]: where the note is “class symbol”, the EC50 was less than 100 nM.

On to `C=C(C)[C@@H]1CC[C@]2(CNCC(=O)N(C)C)CC[C@]3(C)[C@H](CC[C@@H]4[C@@]5(C)CC=C(c6ccc(C(=O)O)cc6)C(C)(C)[C@@H]5CC[C@]43C)[C@@H]12` [Example 39, 4-((1R,3aS,5aR,5bR,7aR,11aS,11bR,13aR,13bR)-3a-((2-(dimethylamino)-2-oxoethylamino)methyl)-5a,5b,8,8,11a-pentamethyl-1-(prop-1-en-2-yl)-2,3,3a,4,5,5a,5b,6,7,7a,8,11,11a,11b,12,13,13a,13b-octadecahydro-1H-cyclopenta[a]chrysen-9-yl)benzoic acid], for which, under “class symbol”, the EC50 was less than 100 nM.

Regarding `C=C(C)[C@@H]1CC[C@]2(CNCCCN3CCS(=O)(=O)CC3)CC[C@]3(C)[C@H](CC[C@@H]4[C@@]5(C)CC=C(c6ccc(C(=O)O)cc6F)C(C)(C)[C@@H]5CC[C@]43C)[C@@H]12` [Example 92, 4-((1R,3aS,5aR,5bR,7aR,11aS,11bR,13aR,13bR)-3a-(((3-(1,1-dioxido-4-thiomorpholinyl)propyl)amino)methyl)-1-isopropenyl-5a,5b,8,8,11a-pentamethyl-2,3,3a,4,5,5a,5b,6,7,7a,8,11,11a,11b,12,13,13a,13b-octadecahydro-1H-cyclopenta[a]chrysen-9-yl)-3-fluorobenzoic acid], where the note is “class symbol”, the EC50 was less than 100 nM.

Regarding `C=C(C)[C@@H]1CC[C@]2(CNC3(CN4CCCCC4)CC3)CC[C@]3(C)[C@H](CC[C@@H]4[C@@]5(C)CC=C(c6ccc(C(=O)O)cc6)C(C)(C)[C@@H]5CC[C@]43C)[C@@H]12` [Example 82, 4-((1R,3aS,5aR,5bR,7aR,11aS,11bR,13aR,13bR)-5a,5b,8,8,11a-pentamethyl-3a-((1-(piperidin-1-ylmethyl)cyclopropylamino)methyl)-1-(prop-1-en-2-yl)-2,3,3a,4,5,5a,5b,6,7,7a,8,11,11a,11b,12,13,13a,13b-octadecahydro-1H-cyclopenta[a]chrysen-9-yl)benzoic acid], the EC50 (class symbol) is less than 100 nM.

Take `C=C(C)[C@@H]1CC[C@]2(CNCCC(=O)N3CCC[C@H]3C(=O)O)CC[C@]3(C)[C@H](CC[C@@H]4[C@@]5(C)CC=C(c6ccc(C(=O)O)cc6)C(C)(C)[C@@H]5CC[C@]43C)[C@@H]12` [Example 102, (S)-1-(3-(((1R,3aS,5aR,5bR,7aR,11aS,11bR,13aR,13bR)-9-(4-carboxyphenyl)-5a,5b,8,8,11a-pentamethyl-1-(prop-1-en-2-yl)-2,3,3a,4,5,5a,5b,6,7,7a,8,11,11a,11b,12,13,13a,13b-octadecahydro-1H-cyclopenta[a]chrysen-3a-yl)methylamino)propanoyl)pyrrolidine-2-carboxylic acid]: for the setting “class symbol”, the EC50 was less than 100 nM.

For the compound `C=C(C)[C@@H]1CC[C@]2(CNC(=O)[C@@H]3CCCN3C)CC[C@]3(C)[C@H](CC[C@@H]4[C@@]5(C)CC=C(c6ccc(C(=O)O)cc6)C(C)(C)[C@@H]5CC[C@]43C)[C@@H]12` [Example 150, 4-((1R,3aS,5aR,5bR,7aR,11aS,11bR,13aR,13bR)-5a,5b,8,8,11a-pentamethyl-3a-(((S)-1-methylpyrrolidine-2-carboxamido)methyl)-1-(prop-1-en-2-yl)-2,3,3a,4,5,5a,5b,6,7,7a,8,11,11a,11b,12,13,13a,13b-octadecahydro-1H-cyclopenta[a]chrysen-9-yl)benzoic acid], where the note is “class symbol”, the concentration for a half-maximal effect (EC50) is less than 100 nM.

In the case of `C=C(C)[C@@H]1CC[C@]2(CNCCN3CCCC3=O)CC[C@]3(C)[C@H](CC[C@@H]4[C@@]5(C)CC=C(c6ccc(C(=O)O)c(F)c6)C(C)(C)[C@@H]5CC[C@]43C)[C@@H]12` [Example 91, 2-fluoro-4-((1R,3aS,5aR,5bR,7aR,11aS,11bR,13aR,13bR)-5a,5b,8,8,11a-pentamethyl-3a-((2-(2-oxopyrrolidin-1-yl)ethylamino)methyl)-1-(prop-1-en-2-yl)-2,3,3a,4,5,5a,5b,6,7,7a,8,11,11a,11b,12,13,13a,13b-octadecahydro-1H-cyclopenta[a]chrysen-9-yl)benzoic acid], the EC50 (class symbol) is less than 100 nM.

As for `C=C(C)[C@@H]1CC[C@]2(CN(C)CCN3CCS(=O)(=O)CC3)CC[C@]3(C)[C@H](CC[C@@H]4[C@@]5(C)CC=C(c6ccc(C(=O)O)cc6)C(C)(C)[C@@H]5CC[C@]43C)[C@@H]12` [Example 33], under “class symbol”, the half-maximal effective concentration (EC50) was less than 100 nM.

With `C=C(C)[C@@H]1CC[C@]2(CN(CCCN3CCS(=O)(=O)CC3)C(=O)CCC(=O)NS(=O)(=O)C3CC3)CC[C@]3(C)[C@H](CC[C@@H]4[C@@]5(C)CC=C(c6ccc(C(=O)O)cc6)C(C)(C)[C@@H]5CC[C@]43C)[C@@H]12` [Example 173, 4-((1R,3aS,5aR,5bR,7aR,11aS,11bR,13aR,13bR)-3a-(((4-((cyclopropylsulfonyl)amino)-4-oxobutanoyl)(3-(1,1-dioxido-4-thiomorpholinyl)propyl)amino)methyl)-1-isopropenyl-5a,5b,8,8,11a-pentamethyl-2,3,3a,4,5,5a,5b,6,7,7a,8,11,11a,11b,12,13,13a,13b-octadecahydro-1H-cyclopenta[a]chrysen-9-yl)benzoic acid], the EC50 (class symbol) is less than 100 nM.

For the compound `C=C(C)[C@@H]1CC[C@]2(CNCC(=O)N3CCC(F)(F)CC3)CC[C@]3(C)[C@H](CC[C@@H]4[C@@]5(C)CC=C(c6ccc(C(=O)O)cc6)C(C)(C)[C@@H]5CC[C@]43C)[C@@H]12` [Example 115, 4-((1R,3aS,5aR,5bR,7aR,11aS,11bR,13aR,13bR)-3a-((2-(4,4-difluoropiperidin-1-yl)-2-oxoethylamino)methyl)-5a,5b,8,8,11a-pentamethyl-1-(prop-1-en-2-yl)-2,3,3a,4,5,5a,5b,6,7,7a,8,11,11a,11b,12,13,13a,13b-octadecahydro-1H-cyclopenta[a]chrysen-9-yl)benzoic acid], for the setting “numeric value”, the concentration for a half-maximal effect (EC50) was determined as 3 nM.

For the compound `C=C(C)[C@@H]1CC[C@]2(CNCCC(=O)N3CCC(C(=O)OCC)CC3)CC[C@]3(C)[C@H](CC[C@@H]4[C@@]5(C)CC=C(c6ccc(C(=O)O)cc6)C(C)(C)[C@@H]5CC[C@]43C)[C@@H]12` [Example 98, 4-((1R,3aS,5aR,5bR,7aR,11aS,11bR,13aR,13bR)-3a-((3-(4-(ethoxycarbonyl)piperidin-1-yl)-3-oxopropylamino)methyl)-5a,5b,8,8,11a-pentamethyl-1-(prop-1-en-2-yl)-2,3,3a,4,5,5a,5b,6,7,7a,8,11,11a,11b,12,13,13a,13b-octadecahydro-1H-cyclopenta[a]chrysen-9-yl)benzoic acid], under “class symbol”, the EC50 was less than 100 nM.
